Tested on: rats with ovariectomy-induced osteoporosis
Assay: Ovariectomy-induced osteoporosis model
Assay type: in vivo, rats (strain Sprague-Dawley)
Settings: 3 months
Method: In order to determine the efficacy against osteoporosis in rats (strain Sprague-Dawley), two animal test models were constructed to illustrate the outcomes against normal osteoporosis or estrogen-deficiency-induced osteoporosis, respectively.
In the animal test models, retinoic acid-induced osteoporosis model was used as normal osteoporosis model and ovariectomy-induced model was used as the model for osteoporosis induced by estrogen deficiency.
The following experiment was conducted to test the effects of the pharmaceutical composition of the present invention on rats with ovariectomy-induced osteoporosis in terms of bone mineral contents, bone mineral density, biomechanical index and bone histomorphometry as well as illustrate the claimed efficacy of the pharmaceutical composition.
The ovariectomized animal model was constructed as follows. Anesthesia of the rats was conducted by intra-abdominal injection of 20% urethane according to the dosage of 1 g/kg. The rats were then placed face down, incised in both sides of the spinal cord under aseptic condition, and their ovaries were removed to attain an osteoporosis animal model. For Normal Group, a piece of fat was removed on both sides of back spinal cord. After five days, 72 animals were chosen from the living rats and randomly divided into 9 groups of 8 animals. Administrations were given according to the following conditions:
Normal Group (pseudo-operation): CMC-Na solution 10 ml/kg/d
Affected Group: CMC-Na solution 10 ml/kg/d
Positive Group (Nylestriol): batch no. 020701, provided by Shianghai Hualian Pharmaceuticals, 1 mg/kg, once a week
Subgroup I—Extract of Semen Cuscutae and Fructus Cindii/Composite Groups
(Medium Dosage): 200 mg/kg
Subgroup II—Sole Extract of Semen Cuscutae (Unitary Group)
Subgroup III—Low Dosage Plus Calcium-containing Substance 100 mg/kg, 200 mg/kg in Total
Subgroup IV—Unitary Group Plus Calcium-containing Substance in a Ratio of 70/30, 200 mg/kg in Total
The animals were continuously administered for 3 months. The effects of the pharmaceutical composition of the present invention on morphological alteration of the femur of rats were analyzed using a Dual Energy X-Ray Absorptiometry (DEXA) two days before end of the experiment under the anesthesia of ether. The femur and tibia bone were peeled and measured. Those pieces were soaked in 4% glutaraldehyde (0.1M, pH 7.3) for more than 24 hours. Later on, the vector side of the femur was hacksawed with dental diamond saw blades (grindstone). One piece from each animal was removed and cleaned in 10% sodium hypochlorite solvent for 6 hours, followed by ultra sound wash for 15 minutes.
It was then dehydrated by ethanol-gradient, soaked in ethyl ether, air dried, and then treated with ion sputtering coating (IB-3). The BMD was assessed by dual-energy X-ray absorptiometry (DEXA), and the SX-40 X-ray bone densitometer on 20,000 volt. The graphs were taken by CMIAS-98A image analyzer.
The bones were dried at […] in the oven and then weighed to get the dry weight. The dry bones were carbonated and then incinerated in 800° C. muffle furnace for 6 hours. The ashes were weighed and then dissolved in 6N HCl, in order to measure the Ca and P levels.

C#C[C@]1(O)[C@H](O)C[C@H]2[C@@H]3CCc4cc(OC5CCCC5)ccc4[C@H]3CC[C@@]21C [Nylestriol]
Ash Mass Index (1 mg/kg once a week): 0.649 ± 0.024 g/g
EI (1 mg/kg once a week): 28.55 ± 7.03 KN · mm^2
K (spring strength) (1 mg/kg once a week): 248.91 ± 53.04 N/mm
Pb (maximum strength) (1 mg/kg once a week): 97 ± 9.4 N
δb (maximum torsion index) (1 mg/kg once a week): 0.54 ± 0.17 mm
σb (tensile strength) (1 mg/kg once a week): 147.79 ± 13.95 MPa
BMD level, Femur (DEXA, femoral head, 1 mg/kg/w): 0.353 ± 0.030 g/cm^2
BMD level, Lumbar vertebra (DEXA, 1 mg/kg/w): 0.263 ± 0.015 g/cm^2
Ca level (bone ash, 1 mg/kg once a week): 0.254 ± 0.029 g/g
P level (bone ash, 1 mg/kg once a week): 0.130 ± 0.014 g/g
Average Trabecular Width (femur, 1 mg/kg/w): 146.89 ± 22.27 μm
Percentage of Trabecular Area (femur, 1 mg/kg/w): 0.9148 ± 0.0371

From patent US20040191344A1, “Pharmaceutical composition for prophylaxis or treatment of osteoporosis, and method to prepare the same” (priority 2003, published 2004)
